# Experimental data reported in PubChem BioAssay (NCI).
#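 Protocol summary: plate cells (96-well), add compound at 5 concentrations, incubate 48 h, interpolate endpoints linearly. TGI: concentration producing complete growth inhibition.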
# Columns and labels:
# Experiment in all cases: NCI-60 cell line screen, 48 h
# SK-OV-3 ovarian = test system: SK-OV-3 ovarian
# SNB-19 CNS = test system: SNB-19 CNS
# EKVX NSCLC = test system: EKVX NSCLC
# SF-295 CNS = test system: SF-295 CNS
# BT-549 breast = test system: BT-549 breast
# UACC-62 melanoma = test system: UACC-62 melanoma
# HT29 colon = test system: HT29 colon
# 786-0 renal = test system: 786-0 renal
# TK-10 renal = test system: TK-10 renal
# RPMI-8226 leukemia = test system: RPMI-8226 leukemia
# HL-60(TB) leukemia = test system: HL-60(TB) leukemia
# CAKI-1 renal = test system: CAKI-1 renal
# MDA-MB-231 breast = test system: MDA-MB-231 breast
# SK-MEL-5 melanoma = test system: SK-MEL-5 melanoma
# HCT-15 colon = test system: HCT-15 colon
# SK-MEL-2 melanoma = test system: SK-MEL-2 melanoma
# OVCAR-8 ovarian = test system: OVCAR-8 ovarian
# T-47D breast = test system: T-47D breast
# OVCAR-4 ovarian = test system: OVCAR-4 ovarian
# OVCAR-5 ovarian = test system: OVCAR-5 ovarian
# UACC-257 melanoma = test system: UACC-257 melanoma
# KM12 colon = test system: KM12 colon
# NCI/ADR-RES ovarian = test system: NCI/ADR-RES ovarian
# OVCAR-3 ovarian = test system: OVCAR-3 ovarian
# UO-31 renal = test system: UO-31 renal
# SF-539 CNS = test system: SF-539 CNS
# A549 NSCLC = test system: A549 NSCLC
# IGROV1 ovarian = test system: IGROV1 ovarian
# HCT-116 colon = test system: HCT-116 colon
# MDA-N = test system: MDA-N
# A498 renal = test system: A498 renal
# HOP-92 NSCLC = test system: HOP-92 NSCLC
# MCF7 breast = test system: MCF7 breast
# NCI-H226 lung = test system: NCI-H226 lung
# K-562 leukemia = test system: K-562 leukemia
# NCI-H460 lung = test system: NCI-H460 lung
# RXF 393 renal = test system: RXF 393 renal
# HOP-62 NSCLC = test system: HOP-62 NSCLC
# COLO 205 colon = test system: COLO 205 colon
# SK-MEL-28 melanoma = test system: SK-MEL-28 melanoma
# SNB-75 CNS = test system: SNB-75 CNS
# SF-268 CNS = test system: SF-268 CNS
# LOX IMVI melanoma = test system: LOX IMVI melanoma
# NCI-H522 lung = test system: NCI-H522 lung
# SN12C renal = test system: SN12C renal
# MOLT-4 leukemia = test system: MOLT-4 leukemia
# U251 CNS = test system: U251 CNS
# PC-3 prostate = test system: PC-3 prostate
# DU-145 prostate = test system: DU-145 prostate
# NCI-H23 lung = test system: NCI-H23 lung
# ACHN renal = test system: ACHN renal
# M14 melanoma = test system: M14 melanoma
# SW-620 colon = test system: SW-620 colon
# HCC-2998 colon = test system: HCC-2998 colon
# MDA-MB-435 = test system: MDA-MB-435
# CCRF-CEM leukemia = test system: CCRF-CEM leukemia
# MALME-3M melanoma = test system: MALME-3M melanoma
# SR leukemia = test system: SR leukemia
smiles,measurement,setting,value
NN/C(=N\S(=O)(=O)c1ccc(-c2ccccn2)s1)Nc1ccc(Cl)cc1,TGI,SK-OV-3 ovarian,> 100 µM
same,TGI,SNB-19 CNS,> 100 µM
same,TGI,EKVX NSCLC,> 100 µM
same,TGI,SF-295 CNS,> 100 µM
same,TGI,BT-549 breast,> 100 µM
same,TGI,UACC-62 melanoma,> 100 µM
same,TGI,HT29 colon,> 100 µM
same,TGI,786-0 renal,> 100 µM
same,TGI,TK-10 renal,> 100 µM
same,TGI,RPMI-8226 leukemia,> 100 µM
same,TGI,HL-60(TB) leukemia,> 100 µM
same,TGI,CAKI-1 renal,> 100 µM
same,TGI,MDA-MB-231 breast,> 100 µM
same,TGI,SK-MEL-5 melanoma,> 100 µM
same,TGI,HCT-15 colon,> 100 µM
same,TGI,SK-MEL-2 melanoma,> 100 µM
same,TGI,OVCAR-8 ovarian,> 100 µM
same,TGI,T-47D breast,> 100 µM
same,TGI,OVCAR-4 ovarian,> 100 µM
same,TGI,OVCAR-5 ovarian,> 100 µM
same,TGI,UACC-257 melanoma,> 100 µM
same,TGI,KM12 colon,> 100 µM
same,TGI,NCI/ADR-RES ovarian,> 100 µM
same,TGI,OVCAR-3 ovarian,> 100 µM
same,TGI,UO-31 renal,> 100 µM
same,TGI,SF-539 CNS,> 100 µM
same,TGI,A549 NSCLC,> 100 µM
same,TGI,IGROV1 ovarian,> 100 µM
same,TGI,HCT-116 colon,> 100 µM
same,TGI,MDA-N,> 100 µM
same,TGI,A498 renal,> 100 µM
same,TGI,HOP-92 NSCLC,> 100 µM
same,TGI,MCF7 breast,> 100 µM
same,TGI,NCI-H226 lung,> 100 µM
same,TGI,K-562 leukemia,> 100 µM
same,TGI,NCI-H460 lung,> 100 µM
same,TGI,RXF 393 renal,94 µM
same,TGI,HOP-62 NSCLC,> 100 µM
same,TGI,COLO 205 colon,> 100 µM
same,TGI,SK-MEL-28 melanoma,> 100 µM
same,TGI,SNB-75 CNS,69.2 µM
same,TGI,SF-268 CNS,84.2 µM
same,TGI,LOX IMVI melanoma,> 100 µM
same,TGI,NCI-H522 lung,57.1 µM
same,TGI,SN12C renal,> 100 µM
same,TGI,MOLT-4 leukemia,> 100 µM
same,TGI,U251 CNS,> 100 µM
same,TGI,PC-3 prostate,> 100 µM
same,TGI,DU-145 prostate,> 100 µM
same,TGI,NCI-H23 lung,> 100 µM
same,TGI,ACHN renal,> 100 µM
same,TGI,M14 melanoma,> 100 µM
same,TGI,SW-620 colon,> 100 µM
O=c1c2ccccc2n2c(=S)[nH]nc2n1-c1ccccc1,TGI,SK-OV-3 ovarian,> 100 µM
same,TGI,SNB-19 CNS,> 100 µM
same,TGI,EKVX NSCLC,> 100 µM
same,TGI,SF-295 CNS,> 100 µM
same,TGI,UACC-62 melanoma,> 100 µM
same,TGI,HT29 colon,> 100 µM
same,TGI,786-0 renal,> 100 µM
same,TGI,TK-10 renal,> 100 µM
same,TGI,HCC-2998 colon,> 100 µM
same,TGI,HL-60(TB) leukemia,> 100 µM
same,TGI,CAKI-1 renal,> 100 µM
same,TGI,MDA-MB-231 breast,> 100 µM
same,TGI,SK-MEL-5 melanoma,> 100 µM
same,TGI,HCT-15 colon,> 100 µM
same,TGI,SK-MEL-2 melanoma,> 100 µM
same,TGI,OVCAR-8 ovarian,> 100 µM
same,TGI,T-47D breast,> 100 µM
same,TGI,OVCAR-4 ovarian,> 100 µM
same,TGI,OVCAR-5 ovarian,> 100 µM
same,TGI,UACC-257 melanoma,> 100 µM
same,TGI,KM12 colon,> 100 µM
same,TGI,NCI/ADR-RES ovarian,> 100 µM
same,TGI,OVCAR-3 ovarian,> 100 µM
same,TGI,UO-31 renal,> 100 µM
same,TGI,SF-539 CNS,> 100 µM
same,TGI,A549 NSCLC,> 100 µM
same,TGI,IGROV1 ovarian,> 100 µM
same,TGI,HCT-116 colon,> 100 µM
same,TGI,MDA-MB-435,> 100 µM
same,TGI,MDA-N,> 100 µM
same,TGI,A498 renal,> 100 µM
same,TGI,CCRF-CEM leukemia,> 100 µM
same,TGI,MALME-3M melanoma,> 100 µM
same,TGI,MCF7 breast,> 100 µM
same,TGI,NCI-H226 lung,> 100 µM
same,TGI,K-562 leukemia,> 100 µM
same,TGI,NCI-H460 lung,> 100 µM
same,TGI,RXF 393 renal,> 100 µM
same,TGI,HOP-62 NSCLC,> 100 µM
same,TGI,COLO 205 colon,> 100 µM
same,TGI,SK-MEL-28 melanoma,> 100 µM
same,TGI,SNB-75 CNS,84 µM
same,TGI,SF-268 CNS,> 100 µM
same,TGI,LOX IMVI melanoma,> 100 µM
same,TGI,NCI-H522 lung,> 100 µM
same,TGI,SR leukemia,> 100 µM
same,TGI,SN12C renal,> 100 µM
same,TGI,MOLT-4 leukemia,> 100 µM
same,TGI,U251 CNS,> 100 µM
same,TGI,PC-3 prostate,> 100 µM
same,TGI,DU-145 prostate,> 100 µM
same,TGI,NCI-H23 lung,> 100 µM
same,TGI,ACHN renal,> 100 µM
same,TGI,M14 melanoma,> 100 µM
same,TGI,SW-620 colon,> 100 µM
